Data taken from patent publication US20130310352A1, “DEXAMETHASONE COMBINATION THERAPY” (priority 2010, published 2013).

Experiments:
ARK = test: MTS cell growth assay; assay type: cell-based; details: Homo sapiens, 24 hours treatment, read-out: IC50 (concentration at 50% inhibition), cell growth
Experimental: (§1) MM cell lines ARP1, ARK, MM.1S, MM.1R and U266 were maintained in RPMI-1640 medium supplemented with 10% fetal bovine serum, 100 U/ml penicillin and 100 μg/ml streptomycin at 37° C. and 5% CO2 Primary MM cells and MM BMSCs were isolated from bone marrow aspirates of myeloma patients. PBMCs were obtained from healthy volunteers. The study was approved by the Institutional Review Board at The University of Texas M.D. Anderson Cancer Center. Anti-caspase-3, caspase-9, PARP, Bim, XIAP, cyclin D1, pp 70S6K (Thr389) and p27(Kip1) antibodies were purchased from Cell Signaling. Anti-bcl-2, Bc1-XL, Akt, pAkt (Thr 308), pAkt (Ser 473), p70S6K and β-actin antibodies were purchased from Santa Cruz. Compound A was dissolved in DMSO at 10 mM as stock solution. Dexamethasone and Propidium iodide (PI) were purchased from Sigma-Aldrich. Recombinant human IL6 was purchased from R&D Systems. FITC conjugated Annexin V was obtained from Invitrogen.
(§2) All experiments were performed in triplicate.

ARP1 = test: MTS cell growth assay; assay type: cell-based; details: Homo sapiens, ARP-1, ARP1, 24 hours treatment, read-out: IC50 (concentration at 50% inhibition), cell growth
Experimental: as §1, §2

MM.1R = test: MTS cell growth assay; assay type: cell-based; details: Homo sapiens, 24 hours treatment, read-out: IC50 (concentration at 50% inhibition), cell growth
Experimental: as §1, §2

MM.1S = test: MTS cell growth assay; assay type: cell-based; details: Homo sapiens, MM1.S, 24 hours treatment, read-out: IC50 (concentration at 50% inhibition), cell growth
Experimental: as §1, §2

U266 = test: MTS cell growth assay; assay type: cell-based; details: Homo sapiens, U-266, U266, 24 hours treatment, read-out: IC50 (concentration at 50% inhibition), cell growth
Experimental: as §1, §2

[1] = test system: MM cell lines ARP1, ARK, MM.1S, MM.1R and U266; test: Annexin V apoptosis assay, MM cell lines; assay type: cell-based, human
Experimental: Briefly, MM cells were cultured in 24-well plates and treated with 0 to 1 mM final concentrations of compound A for 24 or 72 hours. The cells were washed twice with cold PBS and resuspended in Annexin V binding buffer (Invitrogen). MM cells were stained with FITC-conjugated Annexin V and propidium iodide (PI) for 15 min at room temperature. Apoptotic cells were determined as Annexin V positive cells.
To evaluate the effect of compound A on myeloma cells, MM cell lines ARP1, ARK, MM.1S, MM.1R and U266 were treated with different doses of compound A for 24 hours or 72 hours. Compound A induced MM cells apoptosis were measured as described in Materials and Methods.
Five MM cell lines ARP1, ARK, MM.1S, MM.1R and U266 were cultured in the presence of 0 to 1 mM compound A. Cells were harvested after 1 day or 3 days of treatment. Compound A induced MM cell apoptosis were measured by Annexin V staining as described in Materials and Methods. […] Same MM cell lines were treated with 0 to 1 mM compound A for 1 or 3 days. […] Representative histograms of primary MM cells treated with compound A. (D). […] Cells were treated with different doses of compound A for 1 day.

[2] = test system: CD138− stromal cells (BMSCs); test: Cytotoxicity toward stromal cells in primary MM coculture; assay type: cell-based, human; details: 0 to 1 mM, 24 hours, versus primary MM cells
Experimental: MM cell lines ARP1, ARK, MM.1S, MM.1R and U266 were maintained in RPMI-1640 medium supplemented with 10% fetal bovine serum, 100 U/ml penicillin and 100 μg/ml streptomycin at 37° C. and 5% CO2 Primary MM cells and MM BMSCs were isolated from bone marrow aspirates of myeloma patients. PBMCs were obtained from healthy volunteers. […] Compound A was dissolved in DMSO at 10 mM as stock solution. […] FITC conjugated Annexin V was obtained from Invitrogen.
(§4) Compound A-induced cell apoptosis was detected by Annexin V binding assay as previously described (Zheng Y, Cai Z, Wang S, et al. Macrophages are an abundant component of myeloma microenvironment and protect myeloma cells from chemotherapy drug-induced apoptosis. Blood. 2009; 114 (17):3625-3628). Briefly, MM cells were cultured in 24-well plates and treated with 0 to 1 mM final concentrations of compound A for 24 or 72 hours. The cells were washed twice with cold PBS and resuspended in Annexin V binding buffer (Invitrogen). MM cells were stained with FITC-conjugated Annexin V and propidium iodide (PI) for 15 min at room temperature. Apoptotic cells were determined as Annexin V positive cells.
To evaluate compound A function in primary MM cells, the study was extended to CD138+ primary MM cells freshly isolated from myeloma patients. […]

[3] = test system: caspase 3, caspase 9 and PARP in ARP1, MM.1S and MM.1R; test: Western blotting, caspases activation; assay type: cell-based, human; details: 10 μM
Experimental: as §1
To elucidate compound A induced MM cell apoptosis, MM cell lines ARP1, MM.1S and MM.1R, treated with or without compound A for 24 hours, were assessed by Western blotting analysis.
(§3) (A). […] Compound A induced activation and cleavage of caspase-3, caspase-9 and PARP is shown. (B). Same MM cells treated with 10 μM compound A were lysed for western blotting. (C) RP1 cells were treated with 10 μM compound A for 1, 6, 12 and 24 hours.

[4] = test system: p27 (Kip1) and cyclin D1 in MM cells; test: Immunoblotting, cell cycle regulators; assay type: cell-based, human; details: 10 μM compound A
Experimental: as §1, §3

[5] = test system: BimS, XIAP and Bc1-XL in MM cells; test: Immunoblotting, apoptosis regulatory factors; assay type: cell-based, human; details: 10 μM compound A
Experimental: as §1
Next, the expressions of apoptosis regulatory factors was tested. […] Bim is a pro-apoptotic factor belonging to Bc1-2 family (O'Connor L, Strasser A, O'Reilly L A, et al. Bim: a novel member of the Bc1-2 family that promotes apoptosis. EMBO J. 1998; 17 (2):384-395). Bim has three major isoforms generated by alternative splicing, BimEL, BimL and BimS. The shortest form BimS is the most cytotoxic isoform (Weber A, Paschen S A, Heger K, et al. BimS-induced apoptosis requires mitochondrial localization but not interaction with anti-apoptotic Bel-2 proteins. J. Cell Biol. 2007; 177 (4):625-636). Previous work has shown that the transcription of Bim is regulated by the forkhead transcription factor FKHR-L1, a downstream effector of PI3K (Dijkers P F, Medema R H, Lammers J W, Koenderman L, Coffer P J. Expression of the pro-apoptotic Bc1-2 family member Bim is regulated by the forkhead transcription factor FKHR-L1. Curr Biol. 2000; 10 (19):1201-1204). […] Thus, compound A induced MM cell apoptosis may be caused by up-regulation of cytotoxic BimS and down-regulation of anti-apoptotic XIAP and Bc1-XL.
(A). […]

ARP1 cells = test: Established MM model in SCID mice; assay type: in vivo; details: 5 μmol per kg per day intraperitoneal, versus PBS control
Experimental: Six to eight week old female SCID mice were housed and monitored in MD. Anderson Cancer Center animal research facility. All experimental procedures and protocols had been approved by the Institutional Animal Care and Use Committee at The University of Texas M.D. Anderson Cancer Center. SCID mice were subcutaneously inoculated in the right flank with 1 million ARP1 cells suspended in 50 μl PBS. After palpable tumor developed (tumor diameters ≧5 mm), mice were treated with daily intraperitoneal injection of PBS or compound A (5 μmol per kg per day). Tumor sizes were measured every 5 days, and blood samples were collected with the same period. Tumor burdens were evaluated by measuring tumor size and detecting circulating human kappa chain.
Levels of human kappa chain in mice serum were measured by a quantitative ELISA (Bethyl Laboratories Inc) followed the vendor's protocol.
To examine compound A anti-MM effects in vivo, human MM model in SCID mice were established as described in Materials and Methods. When palpable tumors developed (≧5 mm diameters), mice (10 per group) received intraperitoneal injection of compound A (5 μmol per kg per day) or vehicle control PBS daily.
SCID mice were inoculated subcutaneously in the right flank with 1×10^6 ARP1 cells. Three to 4 weeks later when palpable tumors (≧5 mm in diameter) developed, mice (10 per group) were treated with intraperitoneal injections of PBS or compound A (100 nmol per mouse per day) daily. Tumor burdens were measured as (A) tumor volumes and (B) levels of circulating human kappa china in SCID mice sera detected by ELSA, and (C) survival of tumor-bearing mice.

[6] = test system: MM cells ARP1, MM.1S and MM.1R; test: Low-dose single agents, apoptosis; assay type: cell-based, human; details: 1 μM compound A alone, 1 day
Experimental: as §4
Next, the experiment was extended to other MM cell lines, and they were treated with low compound A (1 μM) and dexamethasone (40 μg/ml).
ARP1 cells were treated with 10 μM compound A (BK), 15 nM melphalan (Me), 40 μg/ml dexamethasone (De), 100 μM lenalidomide (Le), 10 μM Bortizomib (BT), or their combinations for 1 day. The cell apoptosis were measured as described. […] Cell apoptosis was measured. […] Same MM cell lines were treated with compound A for 1 day and cell growth were measured by MTS. […] Cell apoptosis were measured by annexin V staining. […] Cells apoptosis rates were measured by annxin V staining. […]

[7] = 24 hours, ARP1, MM.1S and MM.1R

`Nc1cc(C(F)(F)F)c(-c2cc(N3CCOCC3)nc(N3CCOCC3)n2)cn1` [compound A, 5-(2,6-di-morpholin-4-yl-pyrimidin-4-yl)-4-trifluoromethyl-pyridin-2-ylamine] was tested, and the IC50 (ARK) was 1 to 10 µM, the IC50 (ARP1) was 1 to 10 µM and the IC50 (MM.1R) was 1 to 10 µM. The IC50 (MM.1S) was < 1 µM, the IC50 (U266) was 10 to 100 µM and the MM cells apoptosis ([1]; 0 to 1 mM, 24 hours or 72 hours, Annexin V) was “in both a dose dependent and a time dependent manner”. For the same compound, the “concentration inducing significant apoptosis in all tested MM cell lines” value ([1]; 24 hours, P<0.05 compared with control) was ≥ 10 µM, the “cytotoxicity toward CD138− stromal cells” value [2] was “significantly lower cytotoxicity” and the “caspase 3 cleavage” value [3, 7] was “cleavage”. The “caspase 9 cleavage” value [3, 7] was “cleavage”, the PARP cleavage ([3]; all tested cell lines) was “detected” and the “cyclin D1 expression” value [4] was “down-regulated”. The “p27 (Kip1) protein expression” value [4] was “up-regulated”, the Bc1-XL expression [5] was “down-regulated” and the BimS expression [5] was “up-regulated”. For the same compound, the XIAP expression [5] was “down-regulated”, the “survival of tumor-bearing mice” value (ARP1 cells) was “significantly prolonged” and the “tumor burden measured by tumor volume” value (ARP1 cells; P<0.05) was “significantly smaller tumor burdens”. The “tumor burden measured by level of circulating human kappa chain” value (ARP1 cells; P<0.05, ELISA) was “significantly smaller tumor burdens” and the “cytotoxic effect of low dose alone” value [6] was “only limited cytotoxic effect”.
